Values quoted from earlier work as cited in US20260048005A1, “INJECTABLE THERMOSENSITIVE HYDROGELS FOR A SUSTAINED RELEASE OF IRON NANOCHELATORS” (The General Hospital Corporation, priority 2022, published 2026).

Details: in rodents

## CC(=O)N(O)CCCCCNC(=O)CCC(=O)N(O)CCCCCNC(=O)CCC(=O)N(O)CCCCCN [DFO, deferoxamine]
  half-life: 5 to 15 min
